# Source: PubChem BioAssay (NCI)
# “And” between values parts separate entries of the source, which are not always exact repeats. Equal entries are not always repeated.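 Five concentrations, 48 hours, 96-well plates. The concentration for 50% growth inhibition is given as GI50. TGI denotes the concentration required for complete inhibition of growth.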
# Experiments:
# Assay in all cases: DTP human tumour cell line panel, 48 h
# A498 renal = tested on: A498 renal
# HCC-2998 colon = tested on: HCC-2998 colon
# HOP-92 NSCLC = tested on: HOP-92 NSCLC
# NCI-H460 lung = tested on: NCI-H460 lung
# OVCAR-4 ovarian = tested on: OVCAR-4 ovarian
# OVCAR-8 ovarian = tested on: OVCAR-8 ovarian
# SN12C renal = tested on: SN12C renal
# SW-620 colon = tested on: SW-620 colon
# UACC-62 melanoma = tested on: UACC-62 melanoma
# UO-31 renal = tested on: UO-31 renal
SMILES,GI50 (A498 renal),TGI (A498 renal) [µM],GI50 (HCC-2998 colon),TGI (HCC-2998 colon),GI50 (HOP-92 NSCLC),TGI (HOP-92 NSCLC) [µM],GI50 (NCI-H460 lung),TGI (NCI-H460 lung),GI50 (OVCAR-4 ovarian),TGI (OVCAR-4 ovarian) [µM],GI50 (OVCAR-8 ovarian),TGI (OVCAR-8 ovarian) [µM],GI50 (SN12C renal),TGI (SN12C renal) [µM],GI50 (SW-620 colon),TGI (SW-620 colon) [µM],GI50 (UACC-62 melanoma),TGI (UACC-62 melanoma),GI50 (UO-31 renal),TGI (UO-31 renal)
Cc1cc(I)cc(CN(C)CCN2CCCC2)c1O,32.7 µM,67.2,16 µM,35.9 µM,16.8 µM,68.1,28.3 µM,85.4 µM,38.7 µM,> 100,46.7 µM,> 100,41.3 µM,> 100,23.2 µM,60,17.2 µM,33.2 µM,28.7 µM,> 88.9 µM
COc1cc2c(Oc3ccc4[nH]c(C)cc4c3F)ccnc2cc1OCC1(N)CC1,2.2 µM,19.7,2.36 µM,11.8 µM,1.03 µM,7.11,0.908 µM,6.84 µM,4.22 µM,> 100,2.92 µM,> 100,1.78 µM,7.56,0.757 µM,11.8,1.64 µM,3.79 µM,0.864 µM,3.69 µM
Nc1nc(=S)[nH]c(C(=O)Nc2ccc(Cl)c(Cl)c2)c1-c1ccc(Cl)cc1,–,> 100,–,> 100 µM,–,> 100,–,> 100 µM,–,> 100,–,> 100,–,> 100,–,> 100,–,> 100 µM,–,> 100 µM
O=C1NC(=S)NC(=O)C1=Cc1cccc2cc3ccccc3cc12,–,3.63,–,3.89 µM,–,3.76,–,4.82 µM,–,4.75,–,3.9,–,4.9,–,> 25.2,–,3.53 µM,–,3.94 µM
C1CCN(C2OC3C(COC3N3CCCCC3)OC2OC2CCO[C@@H]2N2CCCCC2)CC1 (stereo not given in full),–,> 100,–,> 100 µM,–,47.5,–,> 100 µM,–,> 100,–,59.2,–,> 100,–,> 100,–,41.8 µM,–,> 100 µM
Cc1ccc(C(=O)C(Cl)C(Cl)c2ccc(C)cc2)cc1 (stereo not given),–,30,–,3.92 µM,–,5.24,–,22.3 µM,–,5.04,–,7.7,–,3.88,–,6.32,–,10.9 µM,–,3.73 µM
O=c1[nH]ccc2nc(N3CCC(O)CC3)nc(Nc3cccc(C(F)(F)F)c3)c12,2.5 µM,> 100,11.2 µM,38.4 µM,> 100 µM,> 100,1.62 µM,15 µM,1.73 µM,36.4,3.29 µM,40.6,4.07 µM,> 100,1.91 µM,12.9,1.84 µM,6.95 µM,0.785 µM,23 µM
CCN=c1cc2sc3cc(NCC)c(C)cc3nc-2cc1C,14 µM,53.4,3.5 µM,11.8 µM,0.652 µM,5.62,0.821 µM,5 µM,0.237 µM,2.31,1.22 µM,11.8,1.5 µM,12.5,0.694 µM,12.8,6.88 µM,21.8 µM,2.16 µM,16.4 µM
O=CN1N=C(c2ccc(Cl)cc2)CC1c1cccc(Nc2ccnc3cc(Cl)ccc23)c1 (stereo not given),0.977 µM,8.97,3.12 µM,35.3 µM,1.45 µM,> 100,1.86 µM,11.9 µM,0.638 µM,16.7,1.92 µM,29.1,3.99 µM,> 100,1.61 µM,24.2,1.14 µM,19.6 µM,1.7 µM,> 100 µM
CCn1c(O)c(C=N)c(=O)n(CC)c1=O,–,> 100,–,> 100 µM,–,> 100,–,> 100 µM,–,> 100,–,> 100,–,> 100,–,> 100,–,> 100 µM,–,> 100 µM
C[C@]12CC[C@H](OCCC#N)CC1=CC[C@@H]1C2CC[C@]2(C)/C(=N/OCCC#N)CCC12 (stereo not given in full),–,> 100,–,> 100 µM,–,> 64.4,–,> 100 µM,–,97.7,–,> 100,–,> 100,–,> 100,–,> 100 µM,–,> 100 µM
C=CCN1C=CC(=O)[C@H](O[Si](C)(C)C(C)(C)C)[C@@H]1/C=C/c1ccccc1,13.2 µM,26.1,16.2 µM,30.3 µM,7.05 µM,21.1,8.38 µM,23.8 µM,11.6 µM,24.7,30.6 µM,> 100,13.8 µM,27.3,14.5 µM,29.3,12.1 µM,26.7 µM,9.19 µM,25.1 µM
O=P([O-])(O)OP(=O)([O-])O.[NH-][C@@H]1CCCC[C@H]1[NH-].[Pt+4],> 100 µM and 18.3 µM,> 100,81 µM and 10.6 µM,> 100 µM and 64.5 µM,> 100 µM and 12.2 µM,> 100,4.4 µM and 2.33 µM,> 100 µM and 19.5 µM,> 75.1 µM and 11.2 µM,> 100,14.1 µM and 2.42 µM,> 100,17.6 µM and 8.78 µM,> 100,4.85 µM and 0.659 µM,> 100,9.62 µM and 4.21 µM,> 100 µM and 33.5 µM,32.2 µM and 4.83 µM,> 100 µM and 30.5 µM
CC1(C)CC(n2cnc(-c3ccc(F)cc3)c2-c2ccnc(N)n2)CC(C)(C)N1,> 25 µM,> 25,> 25 µM,> 25 µM,7.19 µM,> 25,11.9 µM,> 25 µM,7.54 µM,> 25,15.6 µM,> 25,17.9 µM,> 25,12.1 µM,> 25,> 25 µM,> 25 µM,16.6 µM,> 25 µM
Cc1cccc(C)c1NC(=O)CCc1nnc2s/c(=C\c3ccc(Cl)cc3)c(=O)n12,–,> 100,–,> 100 µM,–,> 100,–,> 100 µM,–,> 100,–,> 100,–,> 100,–,40.2,–,> 100 µM,–,> 100 µM
c1cc(OCCN2CCCCC2)ccc1CNc1ccc2nc(CCC3CCCCC3)[nH]c2c1,1.67 µM,4.08,2.05 µM,4.28 µM,0.565 µM,2.45,1.94 µM,3.97 µM,2.8 µM,12.3,2.42 µM,6.82,1.52 µM,3.33,1.82 µM,3.84,1.95 µM,3.47 µM,1.49 µM,2.85 µM
